Values after ≈ are worked out from the molar mass of the structure shown.
Tests used:
[1] = human, in vivo
Procedure: Dose regimens evaluated were: 4 mg once daily and 2 mg twice daily, and 8 mg once daily and 4 mg twice daily.

[2] = tested on: fasting plasma glucose (FPG) concentrations in diabetic patients; assay: PK/PD model (modified indirect response model IV) of the effect of Compound (I) on fasting plasma glucose in Type 2 diabetes patients; assay type: in vivo, human
Excerpt: The method by which the Threshold Plasma Concentration, such as the SC50 concentration, for a given compound can be determined is:
2) the model predicted concentrations for the compound are then fed back into the model and used to determine the change in fasting plasma glucose levels after various doses;
3) the relationship between predicted plasma concentrations of compound and fasting plasma glucose can suitably be determined using an indirect pharmacological response model (model IV), for example that described in (Dayneka N L, Garg V and Jusko W J, Comparison of Four Basic Models of Indirect Pharmacodynamic Responses. J of Pharmacokinetics and Biopharmaceutics. Vol 21, No 4. 1993). This model yields estimates of glucose input rate (Kin) and output rate (Kout), maximal stimulation of glucose output (Smax). Hill coefficient (gamma) and the Threshold Plasma Concentration, such as the SC50 concentration (i.e the concentration associated with a half maximal response) to be determined for that compound. This method forms a further part of the present invention.
For Compound (I), it was necessary to account for a time delay between the time of actual initiation of dosing (week 0) and the observed change in fasting plasma glucose. This delay factor was estimated through the modelling for each dose level. […] The delay factor was incorporated into the model for deriving fasting plasma glucose by assuming that the first dose of drug occurred only after the time dictated by the delay factor. It is considered that for this model a delay factor would be required for other thiazolidinedione insulin sensitisers and that this factor will be substantially similar to that found for Compound (I). Delay factors for other compounds may also be required to be determined using similar methodology to that disclosed herein.
A modified indirect response model IV (Dayneka et al. 1993) was developed utilizing the pharmacokinetics of Compound (I) as the driving force for the change in fasting plasma glucose after various doses of Compound (I). Modeling fittings were done using ADAPT II, Release 4 (D'Argenio and Schumitzky, 1979).
In the absence of Compound (I), plasma glucose levels are governed by formation (kin) and utilization (kout). The action of Compound (I) was described as stimulation (S(t)) of the utilization of plasma glucose (kout), described in text as FPG reduction (Eq. 1). Smax represents the maximal stimulation, SC50 is the Compound (I) concentration associated with half-maximal stimulation and γ represents a sigmoidicity parameter in the Hill type function (Eq. 2). [formula]
The mean fasting plasma glucose profiles from 6 weeks prior to dosing (time 0) through 26 weeks of treatment for the 5 treatment groups are shown in FIG. 2. The PK/PD model accommodates the full nature of the fasting plasma glucose response over the duration of the study period as evidenced by the close agreement between observed and predicted fasting plasma glucose concentrations (FIG. 2). […] The lag-time allows the model to describe the slow onset of action of Compound (I) observed over the first 4 weeks of dosing.

## CN(CCOc1ccc(CC2SC(=O)NC2=O)cc1)c1ccccn1 (stereo not shown) [Compound (I), 5-[4-[2-(N-methyl-N-(2-pyridyl)amino)ethoxy]benzyl]thiazolidine-2,4-dione]
[1]
  mean post hoc oral clearance: 2.68 L/h
[2]; Homo sapiens, iv, estimated pharmacodynamic parameter, not in table, read-out: SC50 (plasma concentration associated with half-maximal effect on fasting plasma glucose)
  EC50: 0.0514 µg/mL (≈ 0.144 µM)
[2]; estimated pharmacodynamic parameter
  Smax (maximal stimulation of glucose utilization): 0.44
[2]; mean across dose levels, estimated through the modelling
  lag-time (delay) between first dose and onset of FPG response: 292 h
[2]; model-derived
  maximum FPG reduction suggested by Smax of the model: 160 mg/dL
[2]; once daily dosing, study 024
  reduction in glycaemia: clinically meaningful reductions in glycaemia are evident
[2]; study 024, same total daily dose
  efficacy of twice daily versus once daily dosing: twice daily dosing tended to be more efficacious than once daily

— patent publication US20070275063A1, “SUSTAINED RELEASE PHARMACEUTICAL COMPOSITIONS AND METHODS OF TREATMENT USING THE SAME” (SmithKline Beecham Corporation, priority 1998, published 2007)
